In patent publication US11506670B2, “Method of genome-wide direct identification of electrophile-sensing targets” (Cornell University, priority 2018, dated 2022):

Key:
Assay type in all cases: cell-based
Ube2V1 = target: T1, Ube2V1 (Homo sapiens, UniProt Q13404); test: T-REX targeted delivery efficiency, in-gel fluorescence (Cy5 Click); details: HEK293T, Halo-Ube2V1
T1 construct: the gene of interest (GOI) was PCR-amplified out from the original plasmid; expressed in transfected cells; host or cells: HEK 293T
Protocol: (§1) HEK 293T cells were maintained in 1×MEM+ Glutamax™ media supplemented with 10% FBS, 1×NEAA, 1× sodium pyruvate and 1× Pen-Strep. Cells were grown in a humidified, 5% CO2 incubator at 37° C. For in-gel fluorescence analysis and western blot, ˜0.7-0.8×10^6 HEK 293T cells were seeded in 8 cm^2 tissue culture dishes. 24 h later, cells were transfected using TransIT-2020 transfection reagent per the manufacturer's recommendation. Subsequent steps were performed under dim light. 24-36 h post transfection, monolayer of cells were treated with 25 μM Ht-PreHNE in serum-free media and incubated for 2.5 h. Cells were gently rinsed with serum-free media three times every 30 min over the next 1.5 h. Meanwhile, UV lamps were turned on 10 min prior to UV irradiation time. For samples designated for light exposure, lids were removed from the dishes and cells were placed under 365 nm UV light for 5-8 min. The cells were harvested, washed two times with ice-cold PBS and frozen in liquid nitrogen.
(§2) All steps were performed in dark or under dim light. Cells from 8 cm^2 plates were lysed in 30 μL buffer containing 50 mM HEPES (pH 7.6), 150 mM NaCl, 1% Nonidet P-40, 1× Roche cOmplete, mini, EDTA-free protease inhibitor cocktail, and 0.3 mM TCEP by rapid freeze-thaw (×3). […] Protein concentration of the clarified lysate was determined using Bradford assay. […]

Ube2N = target: T2, Ube2N (Homo sapiens, UniProt P61088); test: as above; details: HEK293T, Halo-Ube2N
T2 construct: expressed in transfected cells; host or cells: HEK 293T
T2 sequence (P61088 1-152): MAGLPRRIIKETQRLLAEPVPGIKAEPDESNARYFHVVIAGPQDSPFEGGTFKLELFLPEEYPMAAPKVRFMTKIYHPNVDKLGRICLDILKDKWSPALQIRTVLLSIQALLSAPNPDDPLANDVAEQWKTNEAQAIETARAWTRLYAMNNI
Protocol: as §1, §2

[1] = test system: HaloTag-fused proteins of interest (POI); test: T-REX targeting efficiency by Click coupling, in-gel fluorescence; details: equation of Step 40A (ix)
Protocol: (i) For mammalian cells, add 15 μL freshly prepared lysis buffer (50 mM Hepes pH 7.6, 0.3 mM TCEP and 1% Nonidet p-40) to mammalian cell pellets from Step 2A above and subject to 3 cycles of freeze-thaw. For E. coli cells, resuspend cell pellet in 100 μL lysis buffer consisting of 50 mM HEPES pH 7.6, 2 mM TCEP, 1% Nonidet p-40, 150 μg/mL Lysozyme, 5 μg/mL DNAse-I. Incubate for 20 min at room temperature with agitation. For mammalian cells make sure the cells are resuspended well in lysis buffer.
(iv) Dilute a portion of the clarified lysate to 1 mg/mL in a final volume of ˜25 μL containing 50 mM Hepes pH 7.6, 0.3 mM TCEP, and 0.2 mg/mL His6-TEV-S219V. Incubate at 37° C. for 45 min. The optimal concentration of lysate protein is ˜1.0 mg/mL. High concentration of lysate protein causes failure of Click coupling. Precipitates may appear upon adding His6-TEV-S219V. […]
(vii) Upon completion of the gel-electrophoresis, rinse the gel with ddH2O 20 mL (×2, 5 min) and analyze for Cy5 signal using a ChemiDoc-MP imaging system (Bio-Rad) (see Equipment Setup). Any alternative fluorescence gel imager platforms can be used in this step. […]
(x) Bio-Rad Image Lab™ software is used to quantitate the intensities of Cy5 signal and western blot signal. […] Click on “Analysis table” to generate the quantitated signal intensities corresponding to selected bands. […]

T1 sequence (Q13404 1-170 isoform Q13404-2): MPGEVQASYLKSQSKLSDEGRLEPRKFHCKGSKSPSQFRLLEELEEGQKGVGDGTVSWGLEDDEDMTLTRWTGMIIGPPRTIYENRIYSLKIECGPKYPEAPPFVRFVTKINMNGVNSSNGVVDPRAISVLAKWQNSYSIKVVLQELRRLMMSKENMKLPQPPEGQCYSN

Compound: CCCCCC(O)/C=C/C=O (stereo not drawn) [HNE, 4-hydroxynonenal]
- T-REX targeted delivery efficiency (Ube2V1): 5±2%
- T-REX targeted delivery efficiency (Ube2N): < 2%
- targeting efficiency [1]: 10-40%
